Literature values in patent US6896899B2, “Pharmaceutical preparations of glutathione and methods of administration thereof” (Antioxidant Pharmaceuticals Corp., priority 1996, dated 2005).

How the values were obtained:
[1] = test system: HIV; settings: acutely infected cells, chronically infected cells, normal peripheral blood mononuclear cells
[2] = human, in vivo, iv
[3] = human, in vivo, po, 15 mg/kg
[4] = test system: Mouse; settings: GSH pretreatment
[5] = test system: hepatocellular carcinoma
[6] = test system: blood pressure; settings: 3,699 mg dose, normal subjects
[7] = test system: hematologic parameters; settings: 1,200 mg/day intravenously

Row | Compound | cytokine-stimulated HIV expression and replication [1] | volume of distribution of exogenous glutathione [2] | plasma glutathione levels over the basal concentration [3] | protection against morphine-induced lethality [4] | tumor growth and survival ([5]; 5 g oral GSH per day) | side-effects ([5]; human, in vivo, po) | blood pressure [6] | hematologic parameters (hematocrit, hemoglobin, blood count) compared to baseline [7]
1 | CC(=O)N[C@@H](CS)C(=O)O [NAC, N-acetyl cysteine] | can inhibit | – | – | – | – | – | – | –
2 | N[C@@H](CCC(=O)N[C@@H](CS)C(=O)NCC(=O)O)C(=O)O [GSH, gamma-glutamyl-cysteinyl-glycine] | can inhibit | 176-107 Ml/Kg | 1.5-10 fold | protects against morphine-induced lethality | Two of the female patients survived 1 year and exhibited regression or stagnation of their tumor growth | Two patients withdrew shortly after receiving GSH due to intolerable side-effects | significant decrease | significantly increase
